Assay results from PubChem BioAssay AID1963979 (Molecular Pharmacology Branch, DTP, NCI, 2024).

Test system: 361931-004-R-J1-PDC multicell spheroid viability
Assay: Anticancer human tumor 361931-004-R-J1-PDC patient-derived colon adenocarcinoma cell line growth inhibition [PI3K]
Conditions: for IC50: curve of first compound; for viability, T/C: stronger effect = lower value
Source text: Combinatorial screen of targeted agents with the PI3K inhibitors inavolisib, alpelisib, duvelisib, and copanlisib in multi-cell type tumor spheroids
A high-throughput screen of multi-cell type tumor spheroids was designed to identify active combinations of targeted small molecules and PI3K pathway inhibitors. Complex spheroids include a stromal component modeled by human endothelial cells (HUVEC) and fibroblasts modeled by human mesenchymal stem cells (MSCs). The concentration ranges selected for each drug and investigational agent were based upon clinically achievable concentrations if the clinical Cmax of the agent was known.
Compounds. The drugs and investigational agents: inavolisib (NSC800729), alpelisib (NSC765974), duvelisib (NSC772469), copanlisib (NSC816437), ipatasertib (NSC767898), afuresertib (NSC778305), talazoparib (NSC767125), sapanisertib (NSC764658), selumetinib (NSC741078), tovorafenib (DAY101, NSC766906), vemurafenib (NSC761431), ravoxertinib (NSC781343), sotorasib (NSC818433), MRTX1133 (NSC 836407), abemaciclib (NSC 768073), palbociclib (NSC758247), venetoclax (NSC 766270), SY5609 (NSC837396), enzalutamide (NSC755605), and darolutamide (NSC825331), were obtained from the National Cancer Institute (NCI) Developmental Therapeutics Program Chemical Repository. The FDA-approved anticancer drug set is available from the NCI Developmental Therapeutics Program. […] The stock solutions were prepared in dimethyl sulfoxide (DMSO, Sigma-Aldrich, St. Louis, MO, cat. D2650) at 800-fold the tested concentration and stored at -70 degrees C prior to their use. All drugs and investigational agents were tested over a range starting from a high concentration at or near the clinical Cmax and decreasing in half-log increments. If the clinical Cmax for an agent had not been determined, the highest concentration tested was 10 microM.
Cell Culture. All cells were maintained in an incubator at 37 degrees C and 5% CO2 with 95% humidity. The PDC lines were cultured according to standard operating procedures established by the NCI PDMR (https://pdmr.cancer.gov/sops/default.htm). All PDCs were thawed and cultured in Matrigel-coated flasks prepared with a working solution of 1X Ham's F-12 nutrient mix, without supplementation (Invitrogen, Waltham, MA, cat. 11765054), 100 U/mL penicillin-streptomycin (Invitrogen, cat. 15140122), and 2.5% Matrigel (Corning Inc., Corning, NY, cat. 354248) for the first three passages. The 354836-022-R-J1-PDC, 475296-252-R-J1-PDC, and 997726-040-R-J2-PDC lines were cultured in 6A media, which includes advanced DMEM/F-12 (Thermo Fisher Scientific, cat. 12634028), 10 mM HEPES (Thermo Fisher Scientific, cat. 15630080), 1X GlutaMAX supplement (Thermo Fisher Scientific, cat. 35050061), 0.1 mg/mL primocin (InvivoGen, San Diego, CA, cat. ant-pm-2), 10% defined fetal bovine serum, heat inactivated (HyClone Laboratories Inc., Logan, UT, cat. SH30070.03HI), 50% L-WRN conditioned media (ATCC, cat. CRL-3276), 1.25 mM N-Acetyl-L-cysteine (Sigma-Aldrich, cat. A9165), 10 mM nicotinamide (Sigma-Aldrich, cat. N0636), 1X B-27 supplement (Thermo Fisher Scientific, cat. 17504044), 1X N-2 supplement (Thermo Fisher Scientific, cat. 17502048), and 10 microM Y-27632 dihydrochloride (Tocris Bioscience, Bristol, United Kingdom, cat. 1254). The 624824-186-R-J2-PDC line was cultured in 6C/Colon 1B media, which includes all 6A media components plus 50 ng/mL human EGF recombinant protein (Thermo Fisher Scientific, cat. PHG0311). […]
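Note: spheroids exposed to agents for seven days before readout.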

IC50 (second compound 0.00316 µM): 4.2 µM
IC50 (second compound 0.01 µM): 4.29 µM
IC50 (second compound 0.0316 µM): 4.05 µM
IC50 (second compound 0.1 µM): 3.93 µM
IC50 (second compound 0.316 µM): 3.36 µM
IC50 (second compound 1 µM): 3.32 µM
Structure (SMILES): CC1(C)CCC(CN2CCN(c3ccc(C(=O)NS(=O)(=O)c4ccc(NCC5CCOCC5)c([N+](=O)[O-])c4)c(Oc4cnc5[nH]ccc5c4)c3)CC2)=C(c2ccc(Cl)cc2)C1 + CC(Nc1ccc2c(c1)OCCn1cc(N3C(=O)OCC3C(F)F)nc1-2)C(N)=O
viability, T/C (second compound 0.00316 µM, first compound 0.0316 µM): 104%
viability, T/C (second compound 0.00316 µM, first compound 0.1 µM): 98.4%
viability, T/C (second compound 0.00316 µM, first compound 0.316 µM): 112%
viability, T/C (second compound 0.00316 µM, first compound 1 µM): 101%
viability, T/C (second compound 0.00316 µM, first compound 3.16 µM): 65.6%
viability, T/C (second compound 0.00316 µM, first compound 10 µM): 2.39%
viability, T/C (second compound 0.01 µM, first compound 0.0316 µM): 93.3%
viability, T/C (second compound 0.01 µM, first compound 0.1 µM): 99.7%
viability, T/C (second compound 0.01 µM, first compound 0.316 µM): 91.5%
viability, T/C (second compound 0.01 µM, first compound 1 µM): 103%
viability, T/C (second compound 0.01 µM, first compound 3.16 µM): 67%
viability, T/C (second compound 0.01 µM, first compound 10 µM): 2.81%
viability, T/C (second compound 0.0316 µM, first compound 0.0316 µM): 99.1%
viability, T/C (second compound 0.0316 µM, first compound 0.1 µM): 109%
viability, T/C (second compound 0.0316 µM, first compound 0.316 µM): 92.1%
viability, T/C (second compound 0.0316 µM, first compound 1 µM): 101%
viability, T/C (second compound 0.0316 µM, first compound 3.16 µM): 63%
viability, T/C (second compound 0.0316 µM, first compound 10 µM): 2.11%
viability, T/C (second compound 0.1 µM, first compound 0.0316 µM): 99%
viability, T/C (second compound 0.1 µM, first compound 0.1 µM): 99.8%
viability, T/C (second compound 0.1 µM, first compound 0.316 µM): 95.9%
viability, T/C (second compound 0.1 µM, first compound 1 µM): 85.3%
viability, T/C (second compound 0.1 µM, first compound 3.16 µM): 61.9%
viability, T/C (second compound 0.1 µM, first compound 10 µM): 1.48%
viability, T/C (second compound 0.316 µM, first compound 0.0316 µM): 86.7%
viability, T/C (second compound 0.316 µM, first compound 0.1 µM): 84.7%
viability, T/C (second compound 0.316 µM, first compound 0.316 µM): 87.8%
viability, T/C (second compound 0.316 µM, first compound 1 µM): 84.3%
viability, T/C (second compound 0.316 µM, first compound 3.16 µM): 52.7%
viability, T/C (second compound 0.316 µM, first compound 10 µM): 1.87%
viability, T/C (second compound 1 µM, first compound 0.0316 µM): 78%
viability, T/C (second compound 1 µM, first compound 0.1 µM): 80.7%
viability, T/C (second compound 1 µM, first compound 0.316 µM): 75.8%
viability, T/C (second compound 1 µM, first compound 1 µM): 71.2%
viability, T/C (second compound 1 µM, first compound 3.16 µM): 52.4%
viability, T/C (second compound 1 µM, first compound 10 µM): 1.28%
